Data on one molecule can be found in patent US20180147206A1, “ACTIVATION OF NEURONAL STORE-OPERATED CALCIUM ENTRY PATHWAY FOR THE TREATMENT OF ALZHEIMER'S DISEASE” (The Board of Regents of the University of Texas System, priority 2015, published 2018).

Structures are written as SMILES.

Assay [1] concerns other TRPCs (TRPC1-7), Orais (Orai1-3), or combination of TRPC6 and Orai2. The assay can be described thus: Fura-2 Ca2+ imaging in HEK293 cells transfected with other TRPCs, Orais or TRPC6 plus Orai2. It is filed as cell-based. The note with it: 1 μM (data not shown). The method, then:
To confirm the target for Hyp and NSN compounds, the inventors overexpressed TRPC6 in HEK293 cells and performed a series of Fura-2 Ca^2+ imaging experiments. […] In additional experiments, the inventors evaluated effects of 1 μM NSN compound in experiments with HEK293 cells transfected with other TRPCs (TRPC1-7), Orais (Orail-3), or combination of TRPC6 and Orai2. […] From these experiments, the inventors concluded that Hyp acts as direct activator of TRPC6 channels, but the actions of NSN compound are more complex. In further experiments, the inventors measured SOC in conditions of store depletion. To achieve this, HEK239 cells were preincubated in Ca^2+-free media containing 1 μM Tg. In these experiments, the inventors observed endogenous SOC response in EGFP-transfected cells, which was further enhanced in TRPC6-transfected cells. […] TRPC6 channels are known to be activated by DAG (Estacion et al., 2004). In spine nSOC measurements, addition of 100 μM DHPG was required to generate robust Ca^2+ responses. Thus, in the next series of experiments, the inventors evaluated effects of OAG, a synthetic and stable analog of DAG.

The subject of a further assay is spine nSOC channels. The assay can be described thus: GCamp5.3 Ca2+ imaging of synaptic nSOC in cultured hippocampal neurons. It is filed as cell-based, mouse.
The subject of assay [2] is mushroom spines in hippocampal CA1 neurons. The assay can be described thus: Dendritic spine analysis in hippocampal slice. It is filed as cell-based, mouse. Particulars: 6 month-old mice, 300 nM for 3.5 hours. The method, then: (§1) FIGS. 6A-E. NSN21778 rescues mushroom spine and synaptic plasticity defects in AD hippocampal slices. (FIG. 6A) Confocal images of CA1 hippocampal slices from 6 month-old WTGFP, PS1KIGFP, and APPKIGFP mice. The images are shown for untreated slices (CON) and for slices treated with 300 nM NSN21778 (+NSN) for 3.5 hrs prior to fixation. Scale bar is 10 μm. (FIG. 6B) The fraction of mushroom spines in hippocampal CA1 neurons from 6 month-old WTGFP, PS1KIGFP, and APPKIGFP mice. The results are shown for untreated slices (CON) and for slices treated with 300 nM NSN21778 (+NSN). The average fraction of mushroom spines for each group of cells is shown as mean±SE (n≥31 neurons). ***, p <0.001. (FIG. 6C) Sample fEPSP traces are shown for 6 month-old WT and APPKI hippocampal slices prior to stimulation (basal), immediately after tetanus stimulation (induction) and 1 h after tetanus stimulation (after 1 hr). The results are shown for untreated slices and for slices pre-treated with 300 nM NSN21778 (+NSN) for 2-3 hours prior to tetanus stimulation. (FIG. 6D) The normalized and averaged fEPSP slope is shown as a function of time in the experiments with 6 month-old wild-type and APPKI slices with (+NSN) or without 300 nM NSN21778 pre-treatment. […]
Dendritic Spine Analysis in Hippocampal slice. […] Approximately 25 neurons from 5 mice were analyzed for each genotype. […]

The subject of another assay is hippocampal LTP. Kind of assay: Hippocampal slice field recordings (LTP). It is filed as cell-based, mouse. The note with it: pre-treatment 300 nM for 2-3 hours. How it is done:
as §1, with “stimulation.” for “stimulation. (FIG. 6D) The normalized and averaged fEPSP slope is shown as a function of time in the experiments with 6 month-old wild-type and APPKI slices with (+NSN) or without 300 nM NSN21778 pre-treatment.”
Hippocampal slice field recordings. […] Field potentials (FPs) were recorded with extracellular recording electrodes (1 MΩ) filled with ACSF and placed in stratum radiatum of area CA1. […] The initial slope of the FPs was used to measure stability of synaptic responses and quantify the magnitude of LTP. […]

For the next assay, the system named is amyloid plaques. The assay can be described thus: Aβ immunohistochemistry, amyloid plaque load in APPKI mice. The assay is classed as in vivo, mouse. Particulars: 13 month-old APPKI mice; i.p. 10 mg/kg three times per week for 8 weeks.

With `CC(=O)Nc1ccc(CCNc2ncnc3ccc(N)cc23)cc1` [NSN21778, N-{4-[2-(6-Amino-quinazolin-4-ylamino)-ethyl]-phenyl}-acetamide], the “Ca2+ influx” value in assay [1] is given as “failed to induce Ca^2+ influx”. Moreover, the “spine nSOC” value is given as “rescued spine nSOC” in the assay with spine nSOC channels (PS1KI and APPKI hippocampal neurons, 300 nM applied prior to Ca2+ re-addition); “no significant effect” in the assay on spine nSOC channels (wild-type spines, 300 nM). Further, the mushroom spines result in assay [2] (PS1KIGFP and APPKIGFP hippocampal slices) was “complete rescue”; in assay [2] (WTGFP slices), “no effect”. In addition, the LTP defect entry in the assay with hippocampal LTP (APPKI slices, 6 month-old) is recorded as “completely rescued”. The LTP result with hippocampal LTP (wild-type slices) is “no significant effect”. The plaque intensity entry in the assay with amyloid plaques is on record as “significant reduction”. Moreover, in the assay with amyloid plaques, the total plaque area entry was “significant reduction”.
